The values below come from patent US12528816B2, “Substituted imidazo [1,2-b] pyridazines and [1, 2, 4] triazolo [ 4,3-b] pyridazines as camkii inhibitors” (Cardurion Pharmaceuticals, INC., priority 2020, dated 2026).

SMILES strings stand for the structures. Like-named read-outs stand apart in the source and are kept apart here. Where only a bound is given, the exact number is not on record here.

This assay addresses T1, human CaMKIIδ (Homo sapiens, UniProt Q13557).
T1 construct: Full-length, glutathione-S-transferase(GST)-tagged, human CaMKIIδ was purchased from Carna Biosciences; purchased Carna Biosciences (CaMKIIδ); Wako Pure Chemical Industries (calmodulin) 02-111
The assay can be described thus: Evaluation of in vitro CaMKII inhibitory activity (binding assay, TR-FRET). As to conditions: human CaMKIIδ. Summed up: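 Inhibitors, in eight concentrations of 4-fold dilution, were incubated 1 h at room temperature with a protein–fluorescent probe premix preformed 30 min on ice, containing calmodulin and terbium anti-GST antibody. Displacement read by TR-FRET in duplicate; IC50 by logistic fitting.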
A general note: TR-FRET usually uses a lanthanide donor and a delayed reading to cut background.

The mark [1] stands for this setting: in vitro CaMKII inhibitory activity (binding assay), read-out: Act.
Where [2] appears, read: TR-FRET binding assay, class symbols A/B/C, read-out: Act (CaMKII inhibitory activity, binding assay).

For `COc1ncccc1-c1cnc2ccc(-c3cccc(O[C@@H](C)Cn4cnnn4)c3)nn12` [compound 332], under setting [1], the IC50 is less than 10 nM. Same read-out and setting: to `C[C@@H](Cn1cnnn1)Oc1cccc(-c2ccn3ncc(-c4cnccc4C(N)=O)c3n2)c1` [compound 309] belongs 10 to 100 nM; to `Cc1cc(-c2cnc3ccc(-c4cccc(O[C@@H](C)Cn5cnnn5)c4)nn23)c(C#N)cn1` [compound 333], less than 10 nM. Consider `CC(=O)Nc1ccccc1-c1cnn2ccc(-c3ccc(F)c(O[C@@H](C)Cn4cnnn4)c3)nc12` [compound 39], for which the IC50 under setting [2] is more than 100 nM. As to `CC(=O)N(C)CCOc1cccc(-c2cnc3ccc(-c4ccc(F)c(O[C@@H](C)Cn5cnnn5)c4)nn23)c1C#N` [compound 205], under setting [2], the IC50 was less than 10 nM. As to `COc1ncc(C#N)c(-c2cnc3ccc(-c4cccc(O[C@@H](C)Cn5cnnn5)c4)nn23)n1` [compound 362], the IC50 under setting [1] was less than 10 nM. Regarding `C[C@@H](Cn1cnnn1)Oc1cc(-c2ccc3ncn(-c4cc(F)ccc4C#N)c3n2)cnn1` [Example 347, 4-fluoro-2-[5-(6-{[(2S)-1-(1H-tetrazol-1-yl)propan-2-yl]oxy}pyridazin-4-yl)-3H-imidazo[4,5-b]pyridin-3-yl]benzonitrile], under setting [1], the IC50 was 10 to 100 nM.

With `CNC(=O)c1cccc(-n2cnc3ccc(-c4ccc(F)c(O[C@@H](C)Cn5cnnn5)c4)nc32)c1` [compound 115], under setting [2], the IC50 is less than 10 nM. Regarding `CCN(CC)C(=O)CNC(=O)c1cccc(-c2cnn3ccc(-c4cccc(O[C@@H](C)Cn5cnnn5)c4)nc23)c1` [compound 68], the IC50 under setting [2] was less than 10 nM.

In the case of `C[C@@H](Cn1cnnn1)Oc1cc(-c2ccc3ncc(-c4cc(Br)cc5c4OCC5)n3n2)ccc1F` [compound 187], the IC50 under setting [2] was less than 10 nM. As for `C[C@@H](Cn1cnnn1)Oc1cccc(-c2ccc3ncc(-c4nccc(OCC5COC5)c4C#N)n3n2)c1` [compound 352], under setting [1], the IC50 was less than 10 nM.

For `C[C@@H](Cn1cnnn1)Oc1cc(-c2ccc3ncc(-c4cccn(C)c4=O)n3n2)ccc1F` [compound 196], the IC50 under setting [2] is less than 10 nM.

As for `COc1cc(-c2cnc3ccc(-c4ccc(F)c(O[C@@H](C)Cn5cnnn5)c4)nn23)c(C#N)cn1` [compound 240], the IC50 under setting [1] is less than 10 nM.

As for `C[C@@H](Cn1cnnn1)Oc1cc(-c2ccn3ncc(-c4ccc(N5CCNCC5)cc4)c3n2)ccc1F` [compound 56], under setting [2], the IC50 is less than 10 nM. `C[C@@H](Cn1cnnn1)Oc1nccc(-c2ccc3ncn(-c4cc(F)ccc4C#N)c3n2)n1` [Example 342, 4-fluoro-2-[5-(2-{[(2S)-1-(1H-tetrazol-1-yl)propan-2-yl]oxy}pyrimidin-4-yl)-3H-imidazo[4,5-b]pyridin-3-yl]benzonitrile]: under setting [1], the IC50 was in the range of 10 to 100 nM. As for `C[C@@H](Cn1cnnn1)Oc1cc(-c2ccc3ncc(-c4cn(CCCO)nc4C#N)n3n2)ccc1F` [compound 222], the IC50 under setting [2] lay in the range of 10 to 100 nM. With `C[C@@H](Cn1cnnn1)Oc1cc(-c2ccc3ncc(-c4ccccc4C#N)n3n2)ccc1F` [Example 121, 2-[6-(4-fluoro-3-{[(2S)-1-(1H-tetrazol-1-yl)propan-2-yl]oxy}phenyl)imidazo[1,2-b]pyridazin-3-yl]benzonitrile], the IC50 under setting [2] was less than 10 nM. Turning to `C[C@@H](Cn1cnnn1)Oc1cccc(-c2ccc3ncc(-c4ccn(C)c(=O)c4C#N)n3n2)c1` [compound 259, 1-methyl-2-oxo-4-[6-(3-{[(2S)-1-(1H-tetrazol-1-yl)propan-2-yl]oxy}phenyl)imidazo[1,2-b]pyridazin-3-yl]-1,2-dihydropyridine-3-carbonitrile], the IC50 under setting [1] was less than 10 nM. With `C[C@@H](Cn1cnnn1)Nc1cc(-c2ccc3ncc(-c4ncccc4C#N)n3n2)ccc1F` [compound 485], the IC50 under setting [2] is less than 10 nM.

Consider `C[C@@H](Cn1cnnn1)Oc1cc(-c2ccc3ncc(-c4cccnc4N)n3n2)ccc1F` [compound 194], for which the IC50 under setting [2] is 10 to 100 nM. On the same count and under the same terms, to `C[C@@H](Cn1cnnn1)Oc1cc(-c2ccn3ncc(-c4ccc(N5CCOCC5)cc4)c3n2)ccc1F` [compound 49] belongs 10 to 100 nM. Regarding `C[C@@H](Cn1cnnn1)Oc1cccc(-c2ccn3ncc(-c4cccc(C(=O)NCC5CC5)c4)c3n2)c1` [compound 63], under setting [2], the IC50 is less than 10 nM.
